Consider 16 compounds from US20130296311A1, “INHIBITORS OF HCV NS5A” (PRESIDIO PHARMACEUTICALS, INC., priority 2010, published 2013).

SMILES strings stand for the structures. pEC50: −log10 of the molar value. Read-outs that look alike come from different tables or passages of the source.

This experiment concerns HCV 1b_Huh-Luc/Neo-ET cell line persistently expressing a bicistronic genotype 1b replicon in Huh 7 cells. Briefly: HCV replicon assay (luciferase readout, 72 h). It is filed as cell-based, HCV genotype 1b. To be noted: Hepatitis C virus. In outline:
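EC50 values come from a four-parameter fit of luciferase signal as % of untreated control, repeated across several determinations. The signal is from the HCV 1b_Huh-Luc/Neo-ET replicon line, dosed in triplicate one day post-plating and incubated 72 h before Bright-Glo readout.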

The mark [1] stands for this setting: Huh-7, 72 h, read-out: Inhibition of HCV genotype 1b.

Take `C=CC[C@H](NC(=O)OC)C(=O)N1CCC[C@H]1c1nc2ccc(C#Cc3ccc4c(ccc5nc([C@@H]6CCCN6C(=O)[C@@H](NC(=O)OC)C(C)C)[nH]c54)c3)cc2[nH]1` [Compound 1277]: the pEC50 (Huh-7, read-out: Inhibition of HCV genotype 1b) was > 9.00.

For the compound `CNC(=O)N[C@@H](C(=O)N1CCC[C@H]1c1ncc(C#Cc2ccc(C#Cc3cnc([C@@H]4CCCN4C(=O)[C@H](NC(=O)NC)c4ccccc4)[nH]3)cc2)[nH]1)c1ccccc1` [Compound 307], under setting [1], the pEC50 was > 9.00.

Regarding `COC(=O)N[C@@H](C(=O)N1CCC[C@H]1c1nc2ccc(C#Cc3ccc4nc([C@@H]5CCCN5C(=O)[C@H](NC(=O)OC)c5ccccc5)[nH]c4c3)cc2[nH]1)c1ccccc1` [Compound 851], the pEC50 (Huh-7, 72 h, read-out: Inhibition of HCV) was > 9.00.

`COC(=O)NC(C)(C)C(=O)N1CCC[C@H]1c1ncc(-c2ccc(C#Cc3ccc4nc([C@@H]5CCCN5C(=O)C(C)(C)NC(=O)OC)[nH]c4c3)cc2)[nH]1` [Compound 1050]: the pEC50 under setting [1] is 6.00 to 8.00.

On to `CN(C)[C@@H](C(=O)N1CCC[C@H]1c1ncc(-c2ccc(C#Cc3ccc(-c4cnc([C@@H]5CCCN5C(=O)[C@H](NC(=O)C5CC5)c5ccccc5)[nH]4)cc3)cc2)[nH]1)c1ccccc1` [Compound 215], for which the pEC50 under setting [1] is > 9.00.

In the case of `CC(C)[C@@H](NC(=O)C1CC1)C(=O)N1CCC[C@H]1C(=O)NCc1ccc(C#Cc2cnc([C@@H]3CCCN3C(=O)[C@H](NC(=O)C3CC3)C(C)C)[nH]2)cc1` [Compound 122], the pEC50 under setting [1] is 8.00 to 9.00.

As to `CNC(=O)N[C@@H](C(=O)N1CCC[C@H]1c1ncc(-c2ccc(C#Cc3ccc(-c4cnc([C@@H]5CCCN5C(=O)[C@H](NC(=O)NC)c5ccccc5)[nH]4)cc3)cc2)[nH]1)c1ccccc1` [Compound 162], the pEC50 under setting [1] was > 9.00.

For `COC(=O)N[C@H](C(=O)N1CCC[C@H]1c1ncc(C#Cc2cccc3c(C#Cc4cnc([C@@H]5CCCN5C(=O)[C@@H](NC(=O)OC)C(C)C)[nH]4)cccc23)[nH]1)C(C)C` [Compound 1113], under setting [1], the pEC50 is > 9.00.

Turning to `CC[C@@H](C)[C@H](NC(=O)OC)C(=O)N1CCC[C@H]1c1ncc(-c2ccc(C#Cc3ccc4nc([C@@H]5CCCN5C(=O)[C@@H](NC(=O)OC)[C@H](C)CC)[nH]c4c3)cc2)[nH]1` [Compound 1024], under setting [1], the pEC50 is > 9.00.

With `COC(=O)N[C@H](C(=O)N1CCC[C@H]1c1ncc(-c2ccc(C#Cc3ccc(-c4cnc([C@@H]5CCCN5C(=O)[C@@H](C(C)C)N(C)C)[nH]4)cc3)cc2)[nH]1)C(C)C` [Compound 954], the pEC50 under setting [1] is 8.00 to 9.00.

Take `CC(C)[C@@H](NC(=O)OC(C)(C)C)C(=O)N1CCC[C@H]1C(=O)NCCc1ccc(C#Cc2cnc([C@@H]3CCCN3C(=O)[C@H](NC(=O)OC(C)(C)C)C(C)C)[nH]2)cc1` [Compound 126]: under setting [1], the pEC50 is 6.00 to 8.00.

On to `COC(=O)N[C@H](C(=O)N1CCC[C@H]1c1nc2ccc3cc(C#Cc4ccc(-c5cnc([C@@H]6CCCN6C(=O)[C@H](NC(=O)OC)c6ccccc6)[nH]5)cc4F)ccc3c2[nH]1)C(C)C` [Compound 1100], for which, under setting [1], the pEC50 is > 9.00.

In the case of `O=C(N[C@@H](C(=O)N1CCC[C@H]1c1nc(-c2ccc3cc(C#Cc4cnc([C@@H]5CCCN5C(=O)[C@H](NC(=O)N5CC[C@H](O)C5)c5ccccc5)[nH]4)ccc3c2)c[nH]1)c1ccccc1)N1CC[C@H](O)C1` [Compound 806], under setting [1], the pEC50 was 8.00 to 9.00.

Take `COC(=O)N[C@@H](C(=O)N1CCC[C@H]1c1ncc(-c2ccc(C#Cc3ccc(-c4cnc([C@@H]5CCCN5C(=O)[C@H](NC(=O)N5CCCCC5)c5ccccc5)[nH]4)cc3)cc2)[nH]1)c1ccccc1` [Compound 242]: the pEC50 under setting [1] is > 9.00.

Regarding `CC(C)[C@@H](NC(=O)OC(C)(C)C)C(=O)N1CCC[C@H]1C(=O)Nc1ccc(C#Cc2cnc([C@@H]3CCCN3C(=O)[C@H](NC(=O)OC(C)(C)C)C(C)C)[nH]2)cc1` [Compound 114], under setting [1], the pEC50 is 6.00 to 8.00.

For `CC(C)[C@@H](NC(=O)C1CC1)C(=O)N1CCC[C@H]1C(=O)NCCc1ccc(C#Cc2cnc([C@@H]3CCCN3C(=O)[C@H](NC(=O)C3CC3)C(C)C)[nH]2)cc1` [Compound 127], under setting [1], the pEC50 was 6.00 to 8.00.
